Measurements as given in patent US12077503B2, “Substituted cyclic amides and their use as herbicides” (FMC CORPORATION, priority 2015, dated 2024).

Columns and labels:
Assay type in all cases: in vivo
[1] = system: ragweed (common ragweed, Ambrosia elatior); experiment: Test A preemergence; conditions: Ambrosia artemisiifolia, pre-emergence, 240 h, 0 to 100 scale where 0 is no effect and 100 is complete control, read-out: Ragweed plant response rating; for pest or weed control at 31 g/ha: 31 g ai/ha, Preemergence; for pest or weed control at 125 g/ha: 125 g ai/ha, preemergence, visual injury rating, approximately 10 d
Procedure, shortened: (§1)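 Seeded soil received test chemicals as a preemergence directed spray, and seedlings at one to two leaves, 2–10 cm tall, received them postemergence, in a non-phytotoxic, surfactant-containing solvent mixture. Pots were held in a greenhouse for approximately 10 d, then rated for injury from 0, no effect, to 100, complete control.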

Kochia (Kochia scoparia) [2] = experiment: Test A preemergence; conditions: Bassia scoparia, pre-emergence, 240 h, 0 to 100 scale where 0 is no effect and 100 is complete control, read-out: Kochia plant response rating; for pest or weed control at 31 g/ha: 31 g ai/ha, Preemergence; for pest or weed control at 125 g/ha: 125 g ai/ha, preemergence, visual injury rating, approximately 10 d
Procedure, shortened: as §1

[3] = system: barnyardgrass (Echinochloa crus-galli); experiment: Test A preemergence; conditions: Echinochloa crus-galli, pre-emergence, 240 h, 0 to 100 scale where 0 is no effect and 100 is complete control, read-out: Barnyardgrass plant response rating; for pest or weed control at 31 g/ha: 31 g ai/ha, Preemergence; for pest or weed control at 125 g/ha: 125 g ai/ha, preemergence, visual injury rating, approximately 10 d
Procedure, shortened: as §1

[4] = system: giant foxtail (Setaria faberii); experiment: Test A preemergence; conditions: Setaria faberi, pre-emergence, 240 h, 0 to 100 scale where 0 is no effect and 100 is complete control, read-out: Foxtail, Giant plant response rating; for pest or weed control at 31 g/ha: 31 g ai/ha, Preemergence; for pest or weed control at 125 g/ha: 125 g ai/ha, preemergence, visual injury rating, approximately 10 d
Procedure, shortened: as §1

[5] = system: ryegrass, Italian (Italian ryegrass, Lolium multiflorum); experiment: Test A preemergence; conditions: Lolium multiflorum, pre-emergence, 240 h, 0 to 100 scale where 0 is no effect and 100 is complete control, read-out: Ryegrass, Italian plant response rating; for pest or weed control at 31 g/ha: 31 g ai/ha, Preemergence; for pest or weed control at 125 g/ha: 125 g ai/ha, preemergence, visual injury rating, approximately 10 d
Procedure, shortened: as §1

[6] = system: pigweed (Amaranthus retroflexus); experiment: Test A preemergence; conditions: Amaranthus retroflexus, pre-emergence, 240 h, 0 to 100 scale where 0 is no effect and 100 is complete control, read-out: Pigweed plant response rating; for pest or weed control at 31 g/ha: 31 g ai/ha, Preemergence; for pest or weed control at 125 g/ha: 125 g ai/ha, preemergence, visual injury rating, approximately 10 d
[7] = system: ragweed (common ragweed, Ambrosia elatior); experiment: Test A postemergence; conditions: Ambrosia artemisiifolia, post-emergence, 240 h, Postemergence, read-out: Ragweed plant response rating (0 to 100 scale); for pest or weed control at 125 g/ha: 125 g ai/ha, visual rating about 10 d after treatment; for pest or weed control at 31 g/ha: 31 g ai/ha, 0 is no effect, 100 is complete control
Procedure, shortened: as §1

Kochia (Kochia scoparia) [8] = experiment: Test A postemergence; conditions: Bassia scoparia, post-emergence, 240 h, Postemergence, read-out: Kochia plant response rating (0 to 100 scale); for pest or weed control at 125 g/ha: 125 g ai/ha, visual rating about 10 d after treatment; for pest or weed control at 31 g/ha: 31 g ai/ha, 0 is no effect, 100 is complete control
Procedure, shortened: as §1

corn (Zea mays) = experiment: Test A postemergence; conditions: Zea mays, post-emergence, 240 h, Postemergence, read-out: Corn plant response rating (0 to 100 scale); for plant injury at 125 g/ha: 125 g ai/ha, visual rating about 10 d after treatment; for plant injury at 31 g/ha: 31 g ai/ha, 0 is no effect, 100 is complete control
Procedure, shortened: as §1

[9] = system: barnyardgrass (Echinochloa crus-galli); experiment: Test A postemergence; conditions: Echinochloa crus-galli, post-emergence, 240 h, Postemergence; for pest or weed control at 125 g/ha: 125 g ai/ha, visual rating about 10 d after treatment, read-out: Barnyardgrass plant response rating (0 to 100 scale, 0 no effect, 100 complete control); for pest or weed control at 31 g/ha: 31 g ai/ha, 0 is no effect, 100 is complete control, read-out: Barnyardgrass plant response rating (0 to 100 scale)
Procedure, shortened: as §1

[10] = system: blackgrass (Alopecurus myosuroides); experiment: Test A postemergence; conditions: Alopecurus myosuroides, post-emergence, 240 h, Postemergence, read-out: Blackgrass plant response rating (0 to 100 scale); for pest or weed control at 125 g/ha: 125 g ai/ha, visual rating about 10 d after treatment; for pest or weed control at 31 g/ha: 31 g ai/ha, 0 is no effect, 100 is complete control
Procedure, shortened: as §1

[11] = system: Galium (catchweed bedstraw, Galium aparine); experiment: Test A postemergence; conditions: Galium, post-emergence, 240 h, Postemergence, read-out: Galium plant response rating (0 to 100 scale); for pest or weed control at 125 g/ha: 125 g ai/ha, visual rating about 10 d after treatment; for pest or weed control at 31 g/ha: 31 g ai/ha, 0 is no effect, 100 is complete control
Procedure, shortened: as §1

[12] = system: giant foxtail (Setaria faberii); experiment: Test A postemergence; conditions: Setaria faberi, post-emergence, 240 h, Postemergence, read-out: Foxtail, Giant plant response rating (0 to 100 scale); for pest or weed control at 125 g/ha: 125 g ai/ha, visual rating about 10 d after treatment; for pest or weed control at 31 g/ha: 31 g ai/ha, 0 is no effect, 100 is complete control
Procedure, shortened: as §1

[13] = system: wheat (Triticum aestivum); experiment: Test A postemergence; conditions: Triticum aestivum, post-emergence, 240 h, Postemergence, read-out: Wheat plant response rating (0 to 100 scale); for plant injury at 125 g/ha: 125 g ai/ha, visual rating about 10 d after treatment; for plant injury at 31 g/ha: 31 g ai/ha, 0 is no effect, 100 is complete control
Procedure, shortened: as §1

[14] = system: ryegrass, Italian (Italian ryegrass, Lolium multiflorum); experiment: Test A postemergence; conditions: Lolium multiflorum, post-emergence, 240 h, Postemergence, read-out: Ryegrass, Italian plant response rating (0 to 100 scale); for pest or weed control at 125 g/ha: 125 g ai/ha, visual rating about 10 d after treatment; for pest or weed control at 31 g/ha: 31 g ai/ha, 0 is no effect, 100 is complete control
Procedure, shortened: as §1

[15] = system: pigweed (Amaranthus retroflexus); experiment: Test A postemergence; conditions: Amaranthus retroflexus, post-emergence, 240 h, Postemergence, read-out: Pigweed plant response rating (0 to 100 scale); for pest or weed control at 125 g/ha: 125 g ai/ha, visual rating about 10 d after treatment; for pest or weed control at 31 g/ha: 31 g ai/ha, 0 is no effect, 100 is complete control
Procedure, shortened: as §1

[16] = system: barnyardgrass (Echinochloa crus-galli); experiment: Test B flooded paddy test; conditions: Echinochloa crus-galli, 250 g ai/ha, Flood; 0 to 100 scale where 0 is no effect and 100 is complete control; read-out: Barnyardgrass plant response rating
Procedure, shortened: (§2)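 Flooding to 3 cm over soil accompanied treatment, which consisted of adding compound to the standing water around 2-leaf plants; depth was then maintained. Visual assessment versus controls followed at 13 to 15 d (scale 0–100, 0 meaning no effect).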

rice (Oryra sativa) = experiment: Test B flooded paddy test; conditions: Oryza sativa, 250 g ai/ha, Flood; 0 to 100 scale where 0 is no effect and 100 is complete control; read-out: Rice plant response rating
Procedure, shortened: as §2

[17] = system: sedge, umbrella (small-flower umbrella sedge, Cyperus difformis); experiment: Test B flooded paddy test; conditions: Cyperus difformis, 250 g ai/ha, Flood; 0 to 100 scale where 0 is no effect and 100 is complete control; read-out: Sedge, Umbrella plant response rating
Procedure, shortened: as §2

[18] = system: ducksalad (Heteranthera limosa); experiment: Test B flooded paddy test; conditions: Heteranthera limosa, 250 g ai/ha, Flood; 0 to 100 scale where 0 is no effect and 100 is complete control; read-out: Ducksalad plant response rating
Procedure, shortened: as §2

SMILES	pest or weed control at 31 g/ha [1] [%]	pest or weed control at 125 g/ha [1] [%]	pest or weed control at 31 g/ha (Kochia (Kochia scoparia) [2]) [%]	pest or weed control at 125 g/ha (Kochia (Kochia scoparia) [2]) [%]	pest or weed control at 31 g/ha [3] [%]	pest or weed control at 125 g/ha [3] [%]	pest or weed control at 31 g/ha [4] [%]	pest or weed control at 125 g/ha [4] [%]	pest or weed control at 31 g/ha [5] [%]	pest or weed control at 125 g/ha [5] [%]	pest or weed control at 31 g/ha [6] [%]	pest or weed control at 125 g/ha [6] [%]	pest or weed control at 125 g/ha [7] [%]	pest or weed control at 31 g/ha [7] [%]	pest or weed control at 125 g/ha (Kochia (Kochia scoparia) [8]) [%]	pest or weed control at 31 g/ha (Kochia (Kochia scoparia) [8]) [%]	plant injury at 125 g/ha (corn (Zea mays)) [%]	plant injury at 31 g/ha (corn (Zea mays)) [%]	pest or weed control at 125 g/ha [9] [%]	pest or weed control at 31 g/ha [9] [%]	further results
CN1C[C@H](c2ccccc2)[C@@H](C(=O)Nc2cccc(F)c2F)C1=O [Compound 1282]	0	90	30	70	100	100	100	100	30	70	60	80	40	0	60	0	30	0	100	90	pest or weed control at 125 g/ha [10]: 0%; pest or weed control at 31 g/ha [10]: 0%; pest or weed control at 125 g/ha [11]: 70%; pest or weed control at 31 g/ha [11]: 40%; pest or weed control at 125 g/ha [12]: 80%; pest or weed control at 31 g/ha [12]: 80%; plant injury at 125 g/ha [13]: 50%; plant injury at 31 g/ha [13]: 0%; pest or weed control at 125 g/ha [14]: 40%; pest or weed control at 31 g/ha [14]: 0%; pest or weed control at 125 g/ha [15]: 20%; pest or weed control at 31 g/ha [15]: 0%; pest or weed control at 250 g/ha [16]: 90%; pest or weed control at 250 g/ha (rice (Oryra sativa)): 30%; pest or weed control at 250 g/ha [17]: 0%; pest or weed control at 250 g/ha [18]: 100%
CN1C[C@H](c2cccc(C(F)(F)F)c2)[C@@H](C(=O)Nc2ccccc2-n2cccn2)C1=O [Compound 1284]	0	0	0	0	0	0	0	0	0	0	0	0	0	0	0	0	0	0	0	0	pest or weed control at 125 g/ha [10]: 0%; pest or weed control at 31 g/ha [10]: 0%; pest or weed control at 125 g/ha [11]: 0%; pest or weed control at 31 g/ha [11]: 0%; pest or weed control at 125 g/ha [12]: 0%; pest or weed control at 31 g/ha [12]: 0%; plant injury at 125 g/ha [13]: 0%; plant injury at 31 g/ha [13]: 0%; pest or weed control at 125 g/ha [14]: 0%; pest or weed control at 31 g/ha [14]: 0%; pest or weed control at 125 g/ha [15]: 0%; pest or weed control at 31 g/ha [15]: 0%; pest or weed control at 250 g/ha [16]: 0%; pest or weed control at 250 g/ha (rice (Oryra sativa)): 0%; pest or weed control at 250 g/ha [17]: 0%; pest or weed control at 250 g/ha [18]: 0%
